In DBAASP:
Converted amounts (≈) assume the structure as drawn.

Tests used:
Experiment in all cases: ≥ marks a high value that may be exact or a test limit, other limits are often not marked, values filed in µg/mL are converted to µM
[1] = tested on: Staphylococcus aureus ATCC 2592
[2] = tested on: Pseudomonas fluorescens ATCC 13525
[3] = tested on: Bacillus subtilis ATCC 6633
[4] = tested on: Candida albicans ATCC 2002
[5] = tested on: Staphylococcus carnosus KHS
[6] = tested on: Staphylococcus aureus ATCC 25923
[7] = tested on: Psychrobacter faecalis X29
[8] = tested on: Enterococcus faecium 091299
[9] = tested on: Bacillus licheniformis X39
[10] = tested on: Rhodococcus rhodochrous X15
[11] = tested on: Enterococcus faecalis ATCC 29212
[12] = tested on: Candida parapsilosis ATCC 22019
[13] = tested on: Pseudomonas aeruginosa ATCC 27853
[14] = tested on: Candida albicans NCYC 1467
[15] = tested on: Staphylococcus aureus ST1065
Escherichia coli ML-35p = tested on: Escherichia coli ML-35p
[16] = tested on: Staphylococcus aureus ATCC BAA-44
[17] = tested on: Staphylococcus aureus ATCC 43300
[18] = tested on: Escherichia coli ATCC 25922
[19] = tested on: Staphylococcus aureus NCTC 10788
[20] = tested on: Acinetobacter baumannii 5821
[21] = tested on: Pseudomonas aeruginosa 3599
[22] = tested on: Klebsiella pneumoniae 01-239
Escherichia coli 170 = tested on: Escherichia coli 170
Escherichia coli 09-240 = tested on: Escherichia coli 09-240
Escherichia coli 5509 = tested on: Escherichia coli 5509
[23] = tested on: Pseudomonas aeruginosa 5106
[24] = tested on: Klebsiella pneumoniae 01-252
[25] = tested on: Staphylococcus aureus ATCC 29213
Escherichia coli 09-280 = tested on: Escherichia coli 09-280
[26] = tested on: Enterobacter cloacae 14-262
[27] = tested on: Staphylococcus aureus 01-001
[28] = tested on: Staphylococcus aureus 06-051
[29] = tested on: Enterobacter cloacae 06-267
[30] = tested on: Pseudomonas aeruginosa ATCC 9027
[31] = tested on: Candida albicans NCTC 3179
[32] = tested on: Stenotrophomonas maltophilia
Acinetobacter baumannii = tested on: Acinetobacter baumannii
[33] = tested on: Fusobacterium nucleatum NCTC 10562
[34] = tested on: Enterococcus faecalis NCTC 12697
[35] = tested on: Helicobacter pylori ATCC 43504
[36] = tested on: Streptococcus mutans ATCC 10449
[37] = tested on: Escherichia coli ATCC 25726
[38] = tested on: Pseudomonas aeruginosa PAO239

In the case of `CC[C@H](C)[C@H](NC(=O)[C@H](CCCN=C(N)N)NC(=O)[C@H](CC(C)C)NC(=O)[C@H](C)NC(=O)[C@H](CO)NC(=O)CNC(=O)[C@H](CCSC)NC(=O)[C@@H](N)Cc1ccccc1)C(=O)N[C@@H](C)C(=O)N[C@@H](C)C(=O)N[C@@H](CCCCN)C(=O)N[C@H](C(=O)N[C@@H](CC(C)C)C(=O)N1CCC[C@H]1C(=O)N[C@@H](C)C(=O)N[C@@H](C)C(=O)N[C@@H](CC(C)C)C(=O)N[C@H]1CSSC[C@@H](C(=O)O)NC(=O)[C@H](CCCCN)NC(=O)[C@H](CCCCN)NC(=O)[C@H](Cc2ccccc2)NC(=O)[C@H]([C@@H](C)CC)NC(=O)[C@H](CCC(N)=O)NC1=O)C(C)C` [FMGSALRIAAKVLPAALCQIFKKC], the MIC [1] is reported as 2.42 µM (≈ 6.25 µg/mL), the MIC [2] is reported as at least 38.8 µM and the MIC [3] is reported as 2.42 µM (≈ 6.25 µg/mL). For the same compound, the MIC [4] was 19.4 µM (≈ 50 µg/mL).
Work on `CC[C@H](C)[C@H](NC(=O)[C@H](CC(C)C)NC(=O)[C@H](CC(C)C)NC(=O)[C@H](CC(=O)O)NC(=O)[C@H](CCCCN)NC(=O)[C@@H](NC(=O)[C@@H](NC(=O)CNC(=O)[C@H](CC(C)C)NC(=O)[C@H](CC(C)C)NC(=O)[C@@H](N)CO)[C@@H](C)O)C(C)C)C(=O)NCC(=O)N[C@@H](C)C(=O)NCC(=O)N[C@@H](CCCCN)C(=O)N[C@@H](CO)C(=O)N[C@@H](C)C(=O)N[C@@H](C)C(=O)N[C@@H](CCC(N)=O)C(=O)N[C@@H](CO)C(=O)N[C@H](C(=O)N[C@@H](CC(C)C)C(=O)N[C@@H](CCCCN)C(=O)NCC(=O)N[C@@H](CC(C)C)C(=O)N[C@@H](CO)C(=O)N[C@H]1CSSC[C@@H](C(=O)O)NC(=O)[C@H](CC(=O)O)NC(=O)[C@H](CCCCN)NC(=O)[C@H](CO)NC(=O)[C@H](CC(C)C)NC(=O)[C@H](CCCCN)NC1=O)C(C)C` [SLLGTVKDLLIGAGKSAAQSVLKGLSCKLSKDC] yielded an MIC [5] of at least 150 µM, an MIC [4] of 19 µM (≈ 62.8 µg/mL) and an MIC [6] of 19 µM (≈ 62.8 µg/mL). The MIC [7] was 9.5 µM (≈ 31.4 µg/mL), the MIC [8] was at least 150 µM and the MIC [9] was at least 37.5 µM. It also gave an MIC [10] of 9.5 µM (≈ 31.4 µg/mL).
Compound `CC[C@H](C)[C@H](NC(=O)[C@H](C)NC(=O)[C@H](CO)NC(=O)[C@@H](NC(=O)[C@H](C)NC(=O)[C@@H](NC(=O)[C@@H]1CCCN1C(=O)[C@@H](NC(=O)[C@H](CCSC)NC(=O)CNC(=O)[C@H](CC(C)C)NC(=O)[C@@H](N)CC(C)C)[C@@H](C)CC)C(C)C)[C@@H](C)CC)C(=O)N[C@@H](CO)C(=O)N[C@@H](C)C(=O)N[C@@H](CC(C)C)C(=O)N[C@@H](CO)C(=O)N[C@@H](CCCCN)C(=O)N[C@@H](CC(C)C)C(N)=O` [LLGMIPVAISAISALSKL] has an MIC [11] of 100 µM (≈ 180 µg/mL), an MIC [12] of at least 100 µM and an MIC [13] of over 100 µM. The MIC [14] was at least 71.2 µM, the MIC [6] was 25 µM (≈ 44.9 µg/mL) and the MIC [15] was at least 100 µM. For the same compound, the MIC (Escherichia coli ML-35p) was at least 100 µM, the MIC [16] was at least 100 µM and the MIC [17] was over 100 µM. The MIC [18] was over 100 µM and the MIC [19] was 17.8 µM (≈ 32 µg/mL).
In the case of `CC[C@H](C)[C@H](N)C(=O)N[C@@H](Cc1c[nH]c2ccccc12)C(=O)N[C@@H](CO)C(=O)N[C@@H](C)C(=O)N[C@H](C(=O)N[C@@H](Cc1c[nH]c2ccccc12)C(=O)N[C@@H](CO)C(=O)NCC(=O)N[C@H](C(=O)N[C@@H](CCCCN)C(=O)NCC(=O)N[C@@H](CC(C)C)C(=O)N[C@@H](CC(C)C)C(N)=O)[C@@H](C)CC)[C@@H](C)CC` [IWSAIWSGIKGLL], the MIC [20] is reported as 14 µM (≈ 20.2 µg/mL), the MIC [21] is reported as at least 32 µM and the MIC [13] is reported as over 32 µM. The MIC [22] was at least 32 µM, the MIC (Escherichia coli 170) was at least 32 µM and the MIC (Escherichia coli 09-240) was 30 µM (≈ 43.3 µg/mL). It also gave an MIC (Escherichia coli 5509) of at least 32 µM, an MIC [6] of 1 µM (≈ 1.44 µg/mL) and an MIC [23] of at least 32 µM. The MIC [24] was at least 32 µM, the MIC [18] was 15 µM (≈ 21.6 µg/mL) and the MIC [25] was 4 µM (≈ 5.77 µg/mL). For the same compound, the MIC (Escherichia coli 09-280) was at least 32 µM, the MIC [26] was at least 32 µM and the MIC [27] was 2 µM (≈ 2.89 µg/mL). It also gave an MIC [28] of 2 µM (≈ 2.89 µg/mL), an MIC [29] of at least 32 µM and an MIC [30] of 2 µM (≈ 2.89 µg/mL).
`CSCC[C@H](NC(=O)CN)C(=O)N[C@@H](C)C(=O)N[C@@H](CO)C(=O)N[C@@H](CCCCN)C(=O)N[C@@H](C)C(=O)NCC(=O)N[C@@H](CO)C(=O)N[C@H](C(=O)N[C@@H](CC(C)C)C(=O)NCC(=O)N[C@@H](CCCCN)C(=O)N[C@H](C(=O)N[C@@H](C)C(=O)N[C@@H](CCCCN)C(=O)N[C@H](C(=O)N[C@@H](C)C(=O)N[C@@H](CC(C)C)C(=O)N[C@@H](CCCCN)C(=O)N[C@@H](C)C(=O)N[C@@H](C)C(=O)N[C@@H](CC(C)C)C(N)=O)C(C)C)C(C)C)C(C)C` [GMASKAGSVLGKVAKVALKAAL] was tested, and the MIC [31] was at least 50 µM, the MIC [13] was 12.5 µM (≈ 25.9 µg/mL) and the MIC [32] was 5.66 µM (≈ 11.7 µg/mL). For the same compound, the MIC (Acinetobacter baumannii) was 11.3 µM (≈ 23.4 µg/mL), the MIC [33] was 12.5 µM (≈ 25.9 µg/mL) and the MIC [34] was at least 100 µM. For the same compound, the MIC [6] was 35.4 µM (≈ 73.2 µg/mL), the MIC [35] was 0.483 µM (≈ 1 µg/mL) and the MIC [36] was 3.1 µM (≈ 6.42 µg/mL). It also gave an MIC [18] of 25 µM (≈ 51.7 µg/mL), an MIC [37] of 12.5 µM (≈ 25.9 µg/mL) and an MIC [38] of 25 µM (≈ 51.7 µg/mL).
